According to patent publication US12729381B2, “Methods and compositions for inactivating interleukin-2-inducible t-cell kinase (ITK)” (priority 2020, dated 2026):
“Also recorded” adds a separate entry of the source.

How the values were obtained:
[1] = system: other kinases including mTOR and AKT; assay: Western blot of phospho-kinases in T cells cultured with commercially available ITK inhibitors; format: cell-based; settings: mouse T cells (10n, CTA056) and human PBMC T cells (10n); pAKT, pmTOR
Excerpt: Novel peptide inhibitor SLP76pTYR specifically targets ITK signaling and enhances Treg cell development. Since T cells from SLP76Y145FKI mice can separate GVHD from GVL, we sought to determine whether disruption of ITK signaling with pharmacological agents would have a similar effect. […] Thus, we sought to design a novel inhibitor that would explicitly target the SLP76-ITK interaction and signaling by preventing the SH2 domain of ITK from docking onto SLP76 at tyrosine 145. Since evolution usually selects residues at specific protein: protein interfaces for certain properties (Pletneva et al., 2006), we analyzed the physico-chemical and structural properties of the interface of the SH2 domain and SLP76-pY145 in our quest to generate a potent inhibitor of the ITK-SH2 domain: SLP76-pY145 interaction (FIG. 17A,B). […]
(FIG. 27A) WT mouse T cells were cultured with either 10n or vehicle, then lysed post-incubation, and lysates were western blotted for pITK (size 50-75 kDa), pPLCγ1 (size ~155 kDa), PERK (size ~42 kDa), pAKT (size ~60 kDa), and pmTOR (size 240 kDa). (FIG. 27B) Western blots from three experiments were quantitated and normalized to actin. […] (FIG. 27D) Western blots from three experiments were quantitated and normalized to actin. […] (FIG. 27F) Western blots from three experiments were quantitated and normalized to β-Actin. […]

S1P1 = S1P1 (Mus musculus, UniProt O08530); settings: retention of T cells in secondary lymphoid organs; cited from earlier work
S1P1, sequence (O08530 whole entry): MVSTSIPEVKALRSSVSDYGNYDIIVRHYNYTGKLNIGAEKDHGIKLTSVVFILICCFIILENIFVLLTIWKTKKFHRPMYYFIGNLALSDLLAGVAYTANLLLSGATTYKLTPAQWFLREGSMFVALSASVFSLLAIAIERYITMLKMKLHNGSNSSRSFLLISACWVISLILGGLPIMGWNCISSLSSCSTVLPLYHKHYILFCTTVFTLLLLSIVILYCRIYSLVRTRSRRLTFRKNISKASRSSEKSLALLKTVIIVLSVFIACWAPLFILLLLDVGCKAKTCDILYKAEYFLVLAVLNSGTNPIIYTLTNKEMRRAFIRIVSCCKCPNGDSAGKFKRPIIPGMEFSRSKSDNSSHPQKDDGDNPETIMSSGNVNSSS

Compound | specificity for ITK / inhibition of other kinases [1] | effect on GVHD and GVL (S1P1)
O=c1[nH]c2cc3nc(-c4ccc(-c5ccncc5)cc4)n(CCCN4CCCCC4)c3cc2nc1Cc1ccccc1 [CTA056] | also inhibit several other kinases including mTOR and AKT; also recorded: not specific for ITK | –
CCCCCCCCc1ccc(CCC(N)(CO)CO)cc1 [FTY720] | – | ameliorates GVHD while maintaining GVL effects
CCc1ccc2nc(Nc3cc(Cc4ccccc4)nc(NC4CCC(O)CC4)n3)sc2c1 (stereo not drawn) [GSK2250665A] | also inhibit several other kinases including mTOR and AKT | –
